Reference: patent publication US20200165194A1, “ADDITIVE COMPOSITION FOR CULTURE MEDIUM, ADDITIVE COMPOUND FOR CULTURE MEDIUM, AND METHOD FOR CULTURE OF CELLS OR TISSUE USING SAME” (NISSAN CHEMICAL CORPORATION, priority 2017, published 2020)
Like-named read-outs stand apart in the source and are kept apart here.

Legend:
[1] = tested on: Human umbilical vein endothelial cells; assay: Vascular endothelial cell, 3D culture, ATP assay (Experimental Example 14); type: cell-based; conditions: for proliferation activity (in words): human umbilical vein endothelial cells under three-dimensional conditions; for viability at 5 µM / viability at 10 µM: Homo sapiens, HUVEC, 96 h, 4 days, no-addition = 100%, read-out: relative value of RLU (number of viable cells)
Procedure: Human umbilical vein endothelial cells (manufactured by PromoCell) were precultured in Endothelial Cell proliferation Medium (manufactured by PromoCell) medium (single layer culture). The above-mentioned cells in the logarithmic growth phase were washed with PBS, DetachKit (manufactured by PromoCell) was added, and adherent cells were detached by incubating at 37° C. for 3 min. The medium was added and the mixture was centrifuged and resuspended in the same medium.
(§1) The aforementioned cells were suspended in respective deacylated gellan gum-containing or not containing media (deacylated gellan gum concentration was 0.015 w/v %), and seeded in a 96 well low attachment U-bottom plate (manufactured by Corning, #4520, deacylated gellan gum-free medium), or a low attachment flat bottom plate (manufactured by Corning, #3474, deacylated gellan gum-containing medium) at a cell concentration of 700-2000 cells/90 μL/well (all 3D culture). […] The amount of each compound solution to be added was 10 μL/well. As a control, a DMSO solution dissolved in a medium was added (DMSO final concentration 0.1%).

hiPS cell line 253G1 = assay: Human pluripotent stem cell (hiPS cell), EZSPHERE plate, ATP assay (Experimental Example 13); type: cell-based; conditions: for relative value (%): hiPS 253G1, EZSPHERE plate, 5 μM, 3 days, RLU of DMSO addition = 100%; for proliferation activity (in words): human pluripotent stem cells under three-dimensional conditions
Procedure: hiPS cell line 253G1 (purchased from RIKEN) was cultured on a dish coated with vitronectin VTN-N (manufactured by Thermo Fisher Scientific) using mTeSR1 (registered trade mark) medium (manufactured by STEMCELL Technologies). The above-mentioned cells in the proliferation phase were washed with PBS (manufactured by Fujifilm Corporation Wako Pure Chemical Industries, Ltd.), TrypLE Select (registered trade mark) (manufactured by Thermo Fisher Scientific) was added and the mixture was incubated at 37° C. for 3 min to remove the detaching solution. The medium was added and the cells were detached by pipetting. Thereafter, the supernatant was removed by centrifugation.
The aforementioned cells were suspended in a medium containing 10 μM Y-27632 (manufactured by Fujifilm Corporation Wako Pure Chemical Industries, Ltd.) and seeded in a 96-well EZSPHERE plate (manufactured by AGC TECHNO GLASS CO., LTD., #4860-900) at a cell concentration of 10000 cells/200 μL/well. […] The amount of each compound solution to be added was 2 μL/well. As a control, a DMSO solution dissolved in a medium was added (DMSO final concentration 0.05%). The medium was exchanged by half the volume every day, and each compound solution was also added to make the compound concentration constant.

[2] = tested on: human ovarian cancer cell line SKOV3; assay: Action on SKOV3 cell-2: 3D (deacylated gellan gum) and 2D culture, EGF medium, ATP assay (Experimental Example 3); conditions: for viability at 1 µM / viability at 5 µM / viability at 10 µM / viability at 20 µM: Homo sapiens, SK-OV-3, 96 h, 4 days, compound non-addition = 100%
Procedure: According to the method of patent document 1 (WO 2014/017513), a composition of McCoy's 5a medium (manufactured by Sigma-Aldrich) containing 0.015% (w/v) deacylated gellan gum (KELCOGEL CG-LA, manufactured by Sansho Co., Ltd.) and 15% (v/v) FBS, 30 ng/mL human EGF (manufactured by PEPROTECH) was prepared using FCeM-series Preparation Kit (manufactured by Wako Pure Chemical Industries, Ltd.). In a single layer culture, a non-addition medium composition not containing deacylated gellan gum was prepared. Then, human ovarian cancer cell line SKOV3 (manufactured by DS PHARMA BIO MEDICAL) was suspended in the above-mentioned medium composition added with deacylated gellan gum, and dispensed into the wells of a 384 well flat bottom Ultr-low Attachment surface microplate (manufactured by Corning Incorporated, #3827) at 1000 cells/36 μL/well (three-dimensional culture (3D)). In a single layer culture (2D), human ovarian cancer cell line SKOV3 was suspended in the above-mentioned medium composition not containing deacylated gellan gum, and dispensed into the wells of a 384 well flat bottom microplate (manufactured by Corning Incorporated, #3712) at 400 cells/36 μL per well. After dispensing, the compound to be used in the present invention dissolved in dimethyl sulfoxide (DMSO) was added by 4 μL each at a final concentration of 0, 1, 5, 10, 20 μM, and continuously cultured for 4 days. Each plate was cultured in a standing state in a CO2 incubator (37° C., 5% CO2) for 4 days. An ATP reagent (40 μL) (CellTiter-Glo (registered trade mark) Luminescent Cell Viability Assay, manufactured by Promega) was added to the culture medium on day 4, and the mixture was stirred by a plateshaker (manufactured by AS ONE Corporation, Micro plate mixer NS-P) at room temperature for 15 min. The luminescence intensity (RLU value) was measured by EnSpire (manufactured by Perkin Elmer) and the luminescence value of the medium alone was subtracted to measure the number of viable cells.

[3] = tested on: human alveolar basal epithelial adenocarcinoma-derived cell line A549; assay: Various human cancer cells-2, 3D culture, ATP assay (Experimental Example 6); type: cell-based; conditions: 4 days; for viability at 5 µM / viability at 10 µM: Homo sapiens, A549, 96 h, read-out: number of viable cells (RLU), relative value to control (100%)
Procedure: (§2) Various human-derived cancer cells were precultured (single layer culture) in respective media shown below. […] The above-mentioned cells in the logarithmic growth phase were washed with PBS, a 0.25 w/v % trypsin-1 mmol/L EDTA (ethylenediaminetetraacetic acid) solution (manufactured by Wako Pure Chemical Industries, Ltd.) was added, and adherent cells were detached by incubating at 37° C. for 1-5 min. Each medium was added and the mixture was centrifuged. After resuspension in the same medium, each cell was recovered.
as §1, with “aforementioned various” for “aforementioned”, “700-12000” for “700-2000”, “0.1%). […] When compared with the compound no-addition (control), one showing a value of not more than 119% as -, one showing a value of not less than 120% as ◯, and one showing a value of not less than 150% as ⊚ are shown in the eleventh table and the twelfth table. Unperformed test is left blank.” for “0.1%).”

[4] = tested on: human ovarian cancer cell line SKOV3; assay: as above; type: cell-based; conditions: 4 days; for viability at 5 µM / viability at 10 µM: Homo sapiens, SK-OV-3, 96 h, read-out: number of viable cells (RLU), relative value to control (100%)
Procedure: as §2
as §1, with “aforementioned various” for “aforementioned”, “700-12000” for “700-2000”, “0.1%). […] When compared with the compound no-addition (control), one showing a value of not more than 119% as -, one showing a value of not less than 120% as ◯, and one showing a value of not less than 150% as ⊚ are shown in the eleventh table and the twelfth table. Unperformed test is left blank.” for “0.1%).”

[5] = read-out: relative value of RLU (number of viable cells), 2D single layer culture
[6] = read-out: relative value of RLU (number of viable cells), 3D culture (deacylated gellan gum)
[7] = single layer culture (2D) of SKOV3 cells
[8] = three-dimensional culture (3D) of SKOV3 cells
[9] = low attachment U-bottom plate, 5 μM
[10] = low attachment U-bottom plate, 10 μM
[11] = low attachment flat bottom plate (gellan gum medium), 5 μM
[12] = low attachment flat bottom plate (gellan gum medium), 10 μM
[13] = low attachment flat bottom plate (deacylated gellan gum-containing medium)

Structure (SMILES) | proliferation activity (in words) [1] | relative value (%) (hiPS cell line 253G1) | proliferation activity (in words) (hiPS cell line 253G1) | viability at 1 µM [2, 5] | viability at 5 µM [2, 5] | viability at 10 µM [2, 5] | viability at 20 µM [2, 5] | viability at 1 µM [2, 6] | viability at 5 µM [2, 6] | viability at 10 µM [2, 6] | viability at 20 µM [2, 6] | cell proliferation promoting effect (in words) [2, 7] | cell proliferation promoting effect (in words) [2, 8] | number of viable cells (RLU), relative value to control (100%) [3, 9] | number of viable cells (RLU), relative value to control (100%) [3, 10] | number of viable cells (RLU), relative value to control (100%) [3, 11] | number of viable cells (RLU), relative value to control (100%) [3, 12] | number of viable cells (RLU), relative value to control (100%) [4, 9] | number of viable cells (RLU), relative value to control (100%) [4, 10] | number of viable cells (RLU), relative value to control (100%) [4, 11] | also measured
CCC(=NNC(=O)C(CC)Nc1ccccc1)c1ccc(O)c(C)c1O (centres unmarked) [k-1:H-7] | promoted proliferation activity in human umbilical vein endothelial cells | 194% | promoted proliferation activity in human pluripotent stem cells | – | – | – | – | – | – | – | – | – | – | – | – | – | – | – | – | – | –
CC/C(=N\NC(=O)NCc1cccc(O)c1)c1ccc(O)c(C)c1O [k-1:J-1] | promoted proliferation activity in human umbilical vein endothelial cells | 227% | promoted proliferation activity in human pluripotent stem cells | 93% | 96% | 97% | 102% | 116% | 170% | 186% | 173% | a favorable cell proliferation promoting effect was not observed | exhibited cell proliferation promoting effect at a wide concentration range | ⊙ | ⊙ | ⊙ | ⊙ | ⊙ | ⊙ | ⊙ | number of viable cells (RLU), relative value to control (100%) [4, 12]: ⊙
CC/C(=N\NC(=O)C(C)Nc1ccccc1)c1ccc(O)c(C)c1O (centres unmarked) [k-1:B-1] | promoted proliferation activity in human umbilical vein endothelial cells | 193% | promoted proliferation activity in human pluripotent stem cells | 95% | 99% | 97% | 74% | 127% | 181% | 177% | 158% | a favorable cell proliferation promoting effect was not observed | exhibited cell proliferation promoting effect at a wide concentration range | ⊙ | ⊙ | ⊙ | ⊙ | ⊙ | ⊙ | ⊙ | number of viable cells (RLU), relative value to control (100%) [4, 12]: ⊙
CC/C(=N\NC(=O)NCc1ccccc1)c1ccc(O)c(C)c1O [k-1:I-1] | promoted proliferation activity in human umbilical vein endothelial cells | – | – | 99% | 98% | 94% | 92% | 106% | 111% | 123% | 141% | a favorable cell proliferation promoting effect was not observed | exhibited cell proliferation promoting effect at a wide concentration range | – | – | – | – | – | – | – | viability at 5 µM ([1]; low attachment U-bottom plate): 327%; viability at 10 µM ([1]; low attachment U-bottom plate): 304%; viability at 5 µM [1, 13]: 209%; viability at 10 µM [1, 13]: 268%; viability at 5 µM [3, 9]: < 119%; viability at 10 µM [3, 10]: < 119%; viability at 5 µM [3, 11]: < 119%; viability at 10 µM [3, 12]: 120 to 150%; viability at 5 µM [4, 9]: 120 to 150%; viability at 10 µM [4, 10]: 120 to 150%; viability at 5 µM [4, 11]: < 119%; viability at 10 µM [4, 12]: 120 to 150%
CC/C(=N\NC(=O)CNc1cccc(O)c1)c1ccc(O)c(C)c1O [k-1:D-1] | promoted proliferation activity in human umbilical vein endothelial cells | 207% | promoted proliferation activity in human pluripotent stem cells | 95% | 102% | 98% | 83% | 140% | 174% | 168% | 136% | a favorable cell proliferation promoting effect was not observed | exhibited cell proliferation promoting effect at a wide concentration range | ⊙ | ⊙ | ⊙ | ⊙ | ⊙ | ⊙ | ⊙ | number of viable cells (RLU), relative value to control (100%) [4, 12]: ⊙
